Laboratory results published in the supplement of paper PMC4977894.
± gives the standard deviation of the averaged measurements.

Key:
[1] = system: Homo sapiens (human subject panel, olfactory perception); experiment: perceived odor familiarity rating (rating 0-100); higher = more familiar
Description: (§1)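 Human olfactory psychophysics. 55 healthy subjects (after excluding 6 low performers) sniffed 1 mL of each odorant diluted in paraffin oil (vials, two dilutions per molecule, 20 molecules presented twice). Each subject rated intensity, pleasantness and familiarity on a 0-100 slider, starting at 50 and required to move. Ratings were given only when the subject reported detecting a smell; per-subject ratings are averaged over subjects.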

[2] = system: Homo sapiens (human subject panel, olfactory perception); experiment: perceived odor pleasantness rating (rating 0-100); higher = more pleasant
Description: as §1

[3] = system: Homo sapiens (human subject panel, olfactory perception); experiment: perceived odor intensity rating (rating 0-100); higher = stronger perceived smell
Description: as §1

[4] = odor dilution in paraffin oil: 1/1,000
[5] = odor dilution in paraffin oil: 1/100,000
[6] = odor dilution in paraffin oil: 1/10,000,000
[7] = odor dilution in paraffin oil: 1/10

Row | Compound | perceived odor familiarity rating [1, 4] | perceived odor familiarity rating [1, 5] | perceived odor pleasantness rating [2, 4] | perceived odor pleasantness rating [2, 5] | perceived odor intensity rating [3, 4] | perceived odor intensity rating [3, 5] | perceived odor familiarity rating [1, 6] | perceived odor pleasantness rating [2, 6] | perceived odor intensity rating [3, 6] | perceived odor familiarity rating [1, 7] | perceived odor pleasantness rating [2, 7] | perceived odor intensity rating [3, 7]
1 | COc1nccnc1C [2-Methoxy-3-methylpyrazine] | 63 ± 31 | 64.6 ± 31 | 34.3 ± 34 | 52.6 ± 31 | 87.9 ± 13 | 79.5 ± 17 | – | – | – | – | – | –
2 | COc1cc(C)ccc1O [2-Methoxy-4-methylphenol (replicate)] | – | 51.8 ± 31 | – | 39.5 ± 24 | – | 63 ± 28 | 38.9 ± 26 | 45.5 ± 20 | 33 ± 31 | – | – | –
3 | COc1cc(C)ccc1O [2-Methoxy-4-methylphenol] | – | 53.6 ± 30 | – | 39.6 ± 22 | – | 60.2 ± 27 | 37.5 ± 32 | 43.9 ± 23 | 27 ± 29 | – | – | –
4 | COc1ccccc1OC(C)=O [2-Methoxyphenyl acetate] | 46.3 ± 30 | 45.5 ± 30 | 37.4 ± 27 | 45.5 ± 27 | 74.2 ± 20 | 56 ± 30 | – | – | – | – | – | –
5 | COc1cnccn1 [2-Methoxypyrazine] | 51.9 ± 34 | 52.6 ± 30 | 37.3 ± 30 | 54.8 ± 26 | 68.3 ± 29 | 41.6 ± 30 | – | – | – | – | – | –
6 | COc1ccccc1S [2-Methoxythiophenol] | – | 40.6 ± 34 | – | 15.7 ± 23 | – | 88.2 ± 13 | 37.6 ± 30 | 52.7 ± 24 | 25.8 ± 22 | – | – | –
7 | CCC(C)CO (configuration not stated) [2-Methyl-1-butanol (replicate)] | 47.1 ± 32 | 37.1 ± 31 | 28 ± 26 | 44.4 ± 23 | 78.8 ± 18 | 36.4 ± 31 | – | – | – | – | – | –
8 | CCC(C)CO (configuration not stated) [2-Methyl-1-butanol] | 43.7 ± 29 | 43.3 ± 31 | 38.4 ± 24 | 48.6 ± 21 | 56.2 ± 33 | 32.2 ± 26 | – | – | – | – | – | –
9 | CSc1ccoc1C [2-Methyl-3-methylthiofuran] | – | 48.1 ± 28 | – | 24.5 ± 19 | – | 66.8 ± 24 | 33 ± 24 | 39.4 ± 20 | 31.4 ± 28 | – | – | –
10 | CCCC1CCOC(C)S1 (configuration not stated) [2-Methyl-4-propyl-1,3-oxathiane] | – | 53.6 ± 33 | – | 38.8 ± 30 | – | 68.7 ± 25 | 27.9 ± 27 | 51 ± 26 | 22.7 ± 30 | – | – | –
11 | CC1CCCCC1=O (configuration not stated) [2-Methylcyclohexanone] | 49.8 ± 32 | 33.4 ± 30 | 31.6 ± 25 | 50.9 ± 22 | 74.6 ± 25 | 12.6 ± 18 | – | – | – | – | – | –
12 | Cc1ccco1 [2-Methylfuran] | – | 36.9 ± 27 | – | 52.6 ± 21 | – | 25.1 ± 29 | 38.5 ± 24 | 39.4 ± 22 | 28.9 ± 27 | – | – | –
13 | CCCC(C)C(=O)O (configuration not stated) [2-Methylpentanoic acid] | – | 37.4 ± 31 | – | 50 ± 25 | – | 31.7 ± 30 | 38 ± 29 | 37.9 ± 24 | 35.6 ± 33 | – | – | –
14 | CCCCCCCC(C)=O [2-Nonanone] | 52.3 ± 32 | 39.1 ± 31 | 60.3 ± 23 | 49.6 ± 23 | 58 ± 25 | 29.4 ± 30 | – | – | – | – | – | –
15 | CC(C)C(=O)OCCOc1ccccc1 [2-Phenoxyethyl isobutyrate] | 30.3 ± 31 | – | 55.1 ± 26 | – | 27.5 ± 29 | – | – | – | – | 44 ± 30 | 43.8 ± 22 | 58.7 ± 26
16 | CC=C(C=O)c1ccccc1 [2-Phenyl-2-butenal] | – | 30.9 ± 30 | – | 36.6 ± 25 | – | 19.8 ± 24 | 34.5 ± 24 | 57.5 ± 21 | 20.1 ± 29 | – | – | –
17 | S=C=NCCc1ccccc1 [2-Phenylethyl isothiocyanate] | 47 ± 31 | 41.3 ± 28 | 21.3 ± 21 | 37.7 ± 26 | 75.5 ± 20 | 38.2 ± 30 | – | – | – | – | – | –
